In patent publication US9493474B2, “Inhibitors of the renal outer medullary potassium channel” (Merck Sharp & Dohme Corp., priority 2011, dated 2016):

Tests used:
[1] = molecular target: hROMK (hKir1.1) (Homo sapiens (Human), UniProt P48048); assay: Thallium Flux Assay; assay type: cell-based; conditions: HEK293 cells stably expressing hROMK (hKir1.1); FLIPR-Tetra, 30 min compound incubation
Excerpt: (§1) Several assays may be used to measure functional inhibition of the ROMK channel by compounds of the instant invention. One assay that can be used is an electrophysiology assay that measures the electrical current that is generated as potassium permeates through the channel. Another ROMK functional assay makes use of the ability of thallium to permeate through open ROMK channels and increase the fluorescence of a dye previously loaded into the cells. Under control conditions, cells loaded with dye and exposed to thallium-containing medium display a time-dependent increase in fluorescence, the rate of which depends on number of functional channels. When cells are incubated in the presence of a channel inhibitor, the increase in fluorescence is attenuated in a concentration-dependent manner, and IC50 values of inhibition by compounds can be accurately determined. This assay has been established with cell lines expressing either human, or rat ROMK channels, and operates in 384-well format.
HEK293 cells stably expressing hROMK (hKir1.1) were grown at 37° C. in a 10% CO2 humidified incubator in complete growth media: Dulbecco's Modified Eagle Medium supplemented with non-essential amino acids, Penicillin/Streptomycin/Glutamine, G418 and FBS. At >80% confluency, the media was aspirated from the flask and the sample was rinsed with 10 ml Calcium/Magnesium-free PBS. […] To dislodge the cell, the side of the flask was gently banged with a hand. The cells were triturated completely and then transferred to 25 ml complete media. The sample was then centrifuged at 1,500 rpm for 6 minutes, followed by resuspension in complete growth media and then cell concentration was determined. […] Under ideal growth conditions and appropriate tissue culture practices, this cell line is stable for 40-45 passages.
• FluxOR™ Reagent (Component A) • FluxOR™ Assay Buffer (Component B)—10× Concentrate • PowerLoad™ Concentrate (Component C)—100× Concentrate • Probenecid (Component D)—Lyophilized sample is kept at −20° C. Water soluble, 100× after solubilization in 1 ml water. […] Store at 4° C. • Thallium sulfate (Tl2SO4) Concentrate (Component G)—50 mM in water. […] Can be stored at room temperature • Stimulant Buffer (prepared at 5× final concentration in 1× FluxOR™ Chloride-Free Buffer): 7.5 mM Thallium sulfate and 0.75 mM Potassium sulfate (to give a final assay concentration of 3 mM Thallium/0.3 mM Potassium). Store at 4° C. when not in use. If kept sterile, this solution is good for months. Assay Protocol—
The ROMK channel functional thallium flux assay is performed in 384 wells, using the FLIPR-Tetra instrument. HEK-hKir1.1 cells are seeded in Poly-D-Lysine microplates and kept in a 37° C.-10% CO2 incubator overnight. On the day of the experiment, the growth media is replaced with the FluxOR™ reagent loading buffer and incubated, protected from light, at ambient temperature (23-25° C.) for 90 min. The loading buffer is replaced with assay buffer±test compound followed by 30 min incubation at ambient temperature, where the Thallium/Potassium stimulant is added to the microplate.
• 1. Seed HEK-hKir1.1 cells (50 μl at 20,000 cells/well) in 384-well PDL coated Microplates • 2. Allow cells to adhere overnight in humidified 37° C./10% CO2 incubator • 3. Completely remove cell growth media from microplate and replace with 25 μl loading buffer • 4. Incubate Microplate at room temperature, protected form light, for 90 min • 5. Remove loading buffer and replace with 25 μl 1× Assay Buffer±test compound. • 6. Incubate microplate at room temperature, protected form light, for 30 min • 7. […] Excitation=400 nm, Emission=460 & 580 nm. Collect data for 10 min. Data Calculation—
The fluorescence intensity of wells containing 3 μM of a standard control ROMK inhibitor of the present invention is used to define the ROMK-sensitive component of thallium flux. Fluorescence in the presence of test compounds is normalized to control values to provide % fluorescence change.

[2] = molecular target: Kir1.1 (ROMK1) (Homo sapiens (Human), UniProt P48048); assay: Electrophysiology Assay (whole cell voltage clamp, IonWorks Quattro); assay type: cell-based; conditions: Chinese hamster ovary cells stably expressing Kir1.1; block at voltage step to 0 mV, 6 minutes compound incubation; read-out: EP Assay IC50
Sequence of Kir1.1 (ROMK1) (P48048 whole entry, species assumed): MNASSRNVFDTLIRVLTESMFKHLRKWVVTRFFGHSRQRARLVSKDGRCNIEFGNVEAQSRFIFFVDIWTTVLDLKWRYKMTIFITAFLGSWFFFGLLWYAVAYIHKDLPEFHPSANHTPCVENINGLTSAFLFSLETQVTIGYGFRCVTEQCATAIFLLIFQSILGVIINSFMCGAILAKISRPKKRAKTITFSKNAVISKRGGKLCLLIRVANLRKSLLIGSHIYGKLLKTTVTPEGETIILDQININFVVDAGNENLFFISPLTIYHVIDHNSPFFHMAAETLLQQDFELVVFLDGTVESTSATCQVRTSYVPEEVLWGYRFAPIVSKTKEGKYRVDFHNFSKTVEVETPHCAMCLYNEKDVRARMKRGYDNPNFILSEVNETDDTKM
Excerpt: as §1
Block of Kir1.1 (ROMK1) currents was examined by whole cell voltage clamp (Hamill et. al. Pfluegers Archives 391:85-100 (1981)) using the IonWorks® Quattro automated electrophysiology platform (Molecular Devices, Sunnyvale, Calif.). Chinese hamster ovary cells stably expressing Kir1.1 channels were maintained in T-75 flasks in cell culture media in a humidified 10% CO2 incubator at 37° C. Prior to an experiment, Kir1.1 expression was induced by overnight incubation with 1 mM sodium butyrate. On the day of the experiment, cells were dissociated with 2.5 ml of Versene™ (Invitrogen 15040-066) for approximately 6 minutes at 37° C. and suspended in 10 ml of bath solution containing (in mM): 150 NaCl, 10 KCl, 2.7 CaCl2, 0.5 MgCl2, 5 HEPES, pH 7.4. After centrifugation, the cell pellet was resuspended in approximately 4.0 ml of bath solution and placed in the IonWorks® instrument. The intracellular solution consisted of (in mM): 80 K gluconate, 40 KCl, 20 KF, 3.2 MgCl2, 3 EGTA, 5 Hepes, pH 7.4. Electrical access to the cytoplasm was achieved by perforation in 0.13 mg/ml amphotericin B for 4 minutes. Amphotericin B (Sigma A-4888) was prepared as a 40 mg/ml solution in DMSO.
Voltage protocols and current recordings were performed using the IonWorks® HT software/hardware system. Currents were sampled at 1 kHz. No correction for liquid junction potentials was used. The test pulse, consisting of a 100 ms step to 0 mV from a holding potential of −70 mV, followed by a 100 ms voltage ramp from −70 mV to +70 mV, was applied before and after a 6 minutes compound incubation period. Test compounds were prepared by diluting DMSO stock solutions into the bath solution at 3× the final concentration and placed in the instrument in 96-well polypropylene plates. Current amplitudes were measured using the IonWorks® software. To assess compound potency, the fractional block during the voltage step to 0 mV was calculated in Microsoft® Excel (Microsoft, Redmond, Calif.), and dose-response curves were fitted with Igor Pro 4.0 (WaveMetrics, Lake Oswego, Oreg.).

Sequence of hROMK (hKir1.1) (P48048 whole entry): as the sequence (P48048 whole entry, species assumed) above

| Compound | IC50 [1] | IC50 [2] |
| --- | --- | --- |
| Cc1c([C@@H](O)CN2CCCC3(CCCN(C[C@H](O)c4ccc5c(c4C)COC5=O)C3)C2)ccc2c1COC2=O [Example 6, 5,5′-{2,8-Diazaspiro[5.5]undecane-2,8-diylbis[(1R)-1-hydroxyethane-2,1-diyl]}bis(4-methyl-2-benzofuran-1(3H)-one)] | 359 nM | 201 nM |
| Cc1c([C@@H](O)CN2C(C)CC3CN(CC(O)c4ccc(C#N)cn4)CC32)ccc2c1COC2=O (single isomer, unassigned) [Example 11B] | 91 nM | 53 nM |
| Cc1c([C@@H](O)CN2CCC3CN(CC(O)c4ccc(C#N)cn4)CC32)ccc2c1COC2=O (single isomer, unassigned) [Example 7B] | 566 nM | 2400 nM |
| Cc1cc(S(=O)(=O)N2CCCC23CCN(C[C@H](O)c2ccc4c(c2C)COC4=O)C3)ccc1-n1cnnn1 (single isomer, unassigned) [Example 18B] | 294 nM | 125 nM |
| Cc1c([C@@H](O)CN2CC3CN(CC(O)c4ccc(C#N)cn4)C3C2)ccc2c1COC2=O (single isomer, unassigned) [Example 23] | 540 nM | 1800 nM |
| Cc1c([C@@H](O)CN2CCC3(CCCN(C(=O)c4ccc(-n5cnnn5)nc4)C3)C2)ccc2c1COC2=O (stereo partly drawn) [Example 14, 5-((1R)-2-(7-(6-(1H-tetrazol-1-yl)nicotinoyl)-2,7-diazaspiro[4.5]decan-2-yl)-1-hydroxyethyl)-4-methylisobenzofuran-1(3H)-one] | 241 nM | 108 nM |
| Cc1c([C@@H](O)CN2CC3CCN(C(=O)c4ccc(C#N)cn4)CC3C2)ccc2c1COC2=O (stereo partly drawn) [Example 3, 6-({2-[(2R)-2-Hydroxy-2-(4-methyl-1-oxo-1,3-dihydro-2-benzofuran-5-yl)ethyl]octahydro-5H-pyrrolo[3,4-c]pyridine-5-yl}carbonyl)pyridine-3-carbonitrile] | 865 nM | – |
| N#Cc1ccc(S(=O)(=O)N2CCC3CN(C[C@H](O)c4ccc5c(c4)COC5=O)CC32)cc1 (stereo partly drawn) [Example 9, 4-(5-((R)-2-Hydroxy-2-(1-oxo-1,3-dihydroisobenzofuran-5-yl)ethyl)hexahydropyrrolo[3,4-b]pyrrol-1(2H)-ylsulfonyl)benzonitrile] | 234 nM | – |
| Cc1c([C@@H](O)CN2CCC3CN(CC(O)c4ccc(C#N)cn4)CC32)ccc2c1COC2=O (single isomer, unassigned) [Example 7A] | 152 nM | 47 nM |
| Cc1c([C@@H](O)CN2CC3CCN(C(=O)c4ccc(-n5cnnn5)nc4)CC3C2)ccc2c1COC2=O (stereo partly drawn) [Example 15, 5-((1R)-2-(5-(6-(1H-Tetrazol-1-yl)nicotinoyl)-1H-pyrrolo[3,4-c]_yridine-2(3H,3aH,4H,5H,6H,7H,7aH)-yl)-1-hydroxyethyl)-4-methylisobenzofuran-1(3H)-one] | 103 nM | 200 nM |
| Cc1c([C@@H](O)CN2CCCC3(CCCN3C[C@H](O)c3ccc4c(c3C)COC4=O)C2)ccc2c1COC2=O (stereo partly drawn) [Example 5, 5,5′-{1,7-Diazaspiro[4.5]decane-1,7-diylbis[(1R)-1-hydroxyethane-2,1-diyl]}bis(4-methyl-2-benzofuran-1(3H)-one)] | 737 nM | 348 nM |
| Cc1c([C@@H](O)CN2C(C)CC3CN(CC(O)c4ccc(C#N)cn4)CC32)ccc2c1COC2=O (single isomer, unassigned) [Example 11A] | 93 nM | – |
| Cc1c([C@@H](O)CN2CCC3CN(S(=O)(=O)c4ccc(-n5cnnn5)cc4)CC32)ccc2c1COC2=O (stereo partly drawn) [Example 20, 5-((1R)-2-(5-(4-(1H-Tetrazol-1-yl)phenylsulfonyl)hexahydropyrrolo[3,4-b]pyrrol-1(2H)-yl)-1-hydroxyethyl)-4-methylisobenzofuran-1(3H)-one] | 1050 nM | – |
| Cc1cc(S(=O)(=O)N2CCCC23CCN(C[C@H](O)c2ccc4c(c2C)COC4=O)C3)ccc1-n1cnnn1 (single isomer, unassigned) [Example 18A] | 138 nM | 79 nM |
| Cc1c([C@@H](O)CN2CC3CN(CC(O)c4ccc(C#N)cn4)C3C2)ccc2c1COC2=O (single isomer, unassigned) [Example 22] | 916 nM | – |
| Cc1c([C@@H](O)CN2CCC3(CCCN3C[C@H](O)c3ccc4c(c3C)COC4=O)C2)ccc2c1COC2=O (single isomer, unassigned) [Example 10B] | 76 nM | 184 nM |
| Cc1c([C@@H](O)CN2CCC3CN(C(=O)c4ccc(-n5cnnn5)cn4)CC32)ccc2c1COC2=O (stereo partly drawn) [Example 16, 5-((1R)-2-(5-(5-(1H-tetrazol-1-yl)picolinoyl)hexahydropyrrolo[3,4-b]pyrrol-1(2H)-yl)-1-hydroxyethyl)-4-methylisobenzofuran-1(3H)-one] | 602 nM | 850 nM |
| Cc1c([C@@H](O)CN2CCC3CN(S(=O)(=O)c4ccc(C#N)cc4)CC32)ccc2c1COC2=O (single isomer, unassigned) [Example 8B] | 662 nM | – |
| Cc1c([C@@H](O)CN2CCCC3(CCN(C[C@H](O)c4ccc5c(c4C)COC5=O)C3)C2)ccc2c1COC2=O (stereo partly drawn) [Example 1, 5,5′-{2,7-Diazaspiro[4.5]decane-2,7-diylbis[(1R)-1-hydroxyethane-2,1-diyl]}bis(4-methyl-2-benzofuran-1(3H)-one)] | 274 nM | 117 nM |
